The record followed here is US11028079B2 (ConverGene LLC, priority 2015, dated 2021).

This assay addresses T1, BRD4 bromodomains (Homo sapiens, UniProt O60885).
T1 construct: fused on or other part: T7 phage capsid protein (phage-display fusion; the phage DNA is read out by qPCR)
Briefly: BROMOscan bromodomain competition binding assay (DiscoveRx). The conditions noted are these: Kd from 11 compound concentrations ranging from 0 to 10 μM, read-out: BROMOscan Relative Activity. The gist of the method: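 Compounds in 0.1% DMSO/0.9% MEG competed with a solid-phase acetylated peptide for T7 phage-fused BRD4 bromodomains, with the retained bromodomain measured by qPCR.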
Consider `CNC(=O)C1CCN(c2nc(N3CCN(CCN(C)C)CC3)nc3ccc(-c4c(C)noc4C)cc23)CC1` [Example 267, 1-(2-(4-(2-(dimethylamino)ethyl)piperazin-1-yl)-6-(3,5-dimethylisoxazol-4-yl)quinazolin-4-yl)-N-methylpiperidine-4-carboxamide], for which the Kd is below 0.5 µM.

For the compound `Cc1noc(C)c1-c1ccc2nc(N3CCN(S(C)(=O)=O)CC3)nc(N3CCOC[C@H]3c3ccccc3)c2c1` [Example 268, (R)-4-(6-(3,5-dimethylisoxazol-4-yl)-2-(4-(methylsulfonyl)piperazin-1-yl)quinazolin-4-yl)-3-phenylmorpholine], the Kd is below 0.5 µM.

For the compound `Cc1noc(C)c1-c1ccc2nc(N3CCN(S(C)(=O)=O)CC3)nc(N3CCOC[C@@H]3c3ccccc3)c2c1` [Example 269, (S)-4-(6-(3,5-dimethylisoxazol-4-yl)-2-(4-(methylsulfonyl)piperazin-1-yl)quinazolin-4-yl)-3-phenylmorpholine], the Kd was below 0.5 µM. For `CNC(=O)C1CCN(c2ncnc3ccc(-c4c(C)noc4C)cc23)CC1` [Example 270, 1-(6-(3,5-dimethylisoxazol-4-yl)quinazolin-4-yl)-N-methylpiperidine-4-carboxamide], the Kd is below 0.5 µM. On to `Cc1noc(C)c1-c1ccc2nc(C(=O)NC3CS(=O)(=O)C3)nc(NCc3cccc(Cl)c3)c2c1` [Example 271, 4-((3-chlorobenzyl)amino)-6-(3,5-dimethylisoxazol-4-yl)-N-(1,1-dioxidothietan-3-yl)quinazoline-2-carboxamide], for which the Kd is below 0.5 µM.

For `CNC(=O)Cn1cc(-c2nc(N3CCOC[C@@H]3c3ccccc3)c3cc(-c4c(C)noc4C)ccc3n2)cn1` [Example 272, (S)-2-(4-(6-(3,5-dimethylisoxazol-4-yl)-4-(3-phenylmorpholino)quinazolin-2-yl)-1H-pyrazol-1-yl)-N-methylacetamide], the Kd was below 0.5 µM. The value for `Cc1noc(C)c1-c1ccc2nc(C(=O)N[C@H]3CC[C@H](O)CC3)nc(N3CCOC[C@@H]3c3ccccc3)c2c1` [Example 273, 6-(3,5-dimethylisoxazol-4-yl)-N-((trans)-4-hydroxycyclohexyl)-4-((S)-3-phenylmorpholino)quinazoline-2-carboxamide] was below 0.5 µM; that for `Cc1noc(C)c1-c1ccc2nc(C(=O)N[C@H]3CC[C@H](O)CC3)cc(NCc3cccc(Cl)c3)c2c1` [Example 274, 4-((3-chlorobenzyl)amino)-6-(3,5-dimethylisoxazol-4-yl)-N-((trans)-4-hydroxycyclohexyl)quinoline-2-carboxamide] was below 0.5 µM; that for `Cc1noc(C)c1-c1ccc2nc(C(=O)NC3CCS(=O)(=O)CC3)nc(N3CCOC[C@@H]3c3ccccc3)c2c1` [Example 275, (S)-6-(3,5-dimethylisoxazol-4-yl)-N-(1,1-dioxidotetrahydro-2H-thiopyran-4-yl)-4-(3-phenylmorpholino)quinazoline-2-carboxamide] was below 0.5 µM. In the case of `Cc1noc(C)c1-c1ccc2nc(C(=O)N3CCc4c(cnn4C)C3)nc(N3CCOC[C@@H]3c3ccccc3)c2c1` [Example 276, (S)-(6-(3,5-dimethylisoxazol-4-yl)-4-(3-phenylmorpholino)quinazolin-2-yl)(1-methyl-1,4,6,7-tetrahydro-5H-pyrazolo[4,3-c]pyridin-5-yl)methanone], the Kd was 0.5 to 5 µM.

As for `Cc1noc(C)c1-c1ccc2nc(C(=O)NC3CN(C)C3)nc(N3CCOC[C@@H]3c3ccccc3)c2c1` [Example 277, (S)-6-(3,5-dimethylisoxazol-4-yl)-N-(1-methylazetidin-3-yl)-4-(3-phenylmorpholino)quinazoline-2-carboxamide], the Kd was below 0.5 µM. Consider `Cc1noc(C)c1-c1ccc2nc(N3CCc4c(cnn4C)C3)nc(NCc3cccc(Cl)c3)c2c1` [Example 278, N-(3-chlorobenzyl)-6-(3,5-dimethylisoxazol-4-yl)-2-(1-methyl-1,4,6,7-tetrahydro-5H-pyrazolo[4,3-c]pyridin-5-yl)quinazolin-4-amine], for which the Kd lay within 0.5 to 5 µM. For `Cc1noc(C)c1-c1ccc2nc(C(=O)NCc3cncn3C)nc(N3CCOC[C@@H]3c3ccccc3)c2c1` [Example 279, (S)-6-(3,5-dimethylisoxazol-4-yl)-N-((1-methyl-1H-imidazol-5-yl)methyl)-4-(3-phenylmorpholino)quinazoline-2-carboxamide], the Kd was below 0.5 µM. For `Cc1noc(C)c1-c1ccc2nc(C(=O)NC3CCN(C)CC3)nc(N3CCOC[C@@H]3c3ccccc3)c2c1` [Example 280, (S)-6-(3,5-dimethylisoxazol-4-yl)-N-(1-methylpiperidin-4-yl)-4-(3-phenylmorpholino)quinazoline-2-carboxamide], the Kd was below 0.5 µM. With `Cc1nn(C)cc1CNC(=O)c1nc(N2CCOC[C@@H]2c2ccccc2)c2cc(-c3c(C)noc3C)ccc2n1` [Example 281, (S)—N-((1,3-dimethyl-1H-pyrazol-4-yl)methyl)-6-(3,5-dimethylisoxazol-4-yl)-4-(3-phenylmorpholino)quinazoline-2-carboxamide], the Kd was below 0.5 µM.

With `Cc1noc(C)c1-c1ccc2nc(N3CCc4[nH]ncc4C3)nc(N3CCOC[C@@H]3c3ccccc3)c2c1` [Example 282, (S)-4-(6-(3,5-dimethylisoxazol-4-yl)-2-(1,4,6,7-tetrahydro-5H-pyrazolo[4,3-c]pyridin-5-yl)quinazolin-4-yl)-3-phenylmorpholine], the Kd is below 0.5 µM. Take `Cc1noc(C)c1-c1ccc2nc(C(=O)NCC3CN(C)C3)nc(N3CCOC[C@@H]3c3ccccc3)c2c1` [Example 283, (S)-6-(3,5-dimethylisoxazol-4-yl)-N-((1-methylazetidin-3-yl)methyl)-4-(3-phenylmorpholino)quinazoline-2-carboxamide]: the Kd was below 0.5 µM. Consider `Cc1noc(C)c1-c1ccc2nc(C(=O)N3CCc4[nH]ncc4C3)nc(NCc3cncc(Cl)c3)c2c1` [Example 284, (4-(((5-chloropyridin-3-yl)methyl)amino)-6-(3,5-dimethylisoxazol-4-yl)quinazolin-2-yl)(1,4,6,7-tetrahydro-5H-pyrazolo[4,3-c]pyridin-5-yl)methanone], for which the Kd lay within 0.5 to 5 µM. Regarding `Cc1noc(C)c1-c1ccc2nc(C(=O)N3CCc4[nH]ncc4C3)nc(N3CCOC[C@@H]3c3ccccc3)c2c1` [Example 285, (S)-(6-(3,5-dimethylisoxazol-4-yl)-4-(3-phenylmorpholino)quinazolin-2-yl)(1,4,6,7-tetrahydro-5H-pyrazolo[4,3-c]pyridin-5-yl)methanone], the Kd is 0.5 to 5 µM. `Cc1noc(C)c1-c1ccc2nc(C(=O)N3CCc4[nH]ncc4C3)nc(NC3(c4cccc(Cl)c4)CC3)c2c1` [Example 286, (4-((1-(3-chlorophenyl)cyclopropyl)amino)-6-(3,5-dimethylisoxazol-4-yl)quinazolin-2-yl)(1,4,6,7-tetrahydro-5H-pyrazolo[4,3-c]pyridin-5-yl)methanone]: the Kd was below 0.5 µM.

`Cc1noc(C)c1-c1ccc2nc(C(=O)N3CCc4[nH]ncc4C3)nc(NCc3cccc(Cl)c3)c2c1` [Example 287, (4-((3-chlorobenzyl)amino)-6-(3,5-dimethylisoxazol-4-yl)quinazolin-2-yl)(1,4,6,7-tetrahydro-5H-pyrazolo[4,3-c]pyridin-5-yl)methanone]: the Kd was below 0.5 µM.
